Results: patent US5955495A, “Method of treating diseases of the CNS” (Hoffmann-La Roche Inc., priority 1997, dated 1999)

Experiments:
[1] = biological target: T1, 5-HT2A receptor (Homo sapiens, UniProt P28223); assay: [3H]-DOB binding assay (method b), affinity to the 5-HT2A receptor; conditions: Ki from IC50 in nM; for Ki: read-out: Pki (Pki=-log10 Ki), 5-HT2A, Method b (converted)
T1 construct: expressed in transfected cells
Experimental: (§1) The binding of compounds of formula I in accordance with the invention to selected serotonin […] was determined in vitro by standard methods. The preparations were investigated in accordance with the tests given hereinafter:
b) Affinity to the 5-HT2A receptor in accordance with the [3H]- DOB binding assay according to the method of T. Branchek et. al., Molecular Pharmacology 38, 604-609 (1990).
(§2) The Pki values (Pki=-log10 Ki) of the test substances are given. The Ki value is defined by the following formula: [formula] with the IC50 values being those concentrations of test compounds in nM at which 50% of the receptor-bonded ligands are displaced. [L] is the ligand concentration and the KD value is the dissocation constant of the ligand.

[2] = biological target: T2, 5-HT2C receptor (Rattus norvegicus, UniProt P08909); assay: [3H]-5-HT binding assay (method a), affinity to the 5-HT2C receptor; design: expressed in transfected cells; conditions: Ki from IC50 in nM; for Ki: read-out: Pki (Pki=-log10 Ki), 5-HT2C, Method a (converted)
T2 sequence (P08909 33-460): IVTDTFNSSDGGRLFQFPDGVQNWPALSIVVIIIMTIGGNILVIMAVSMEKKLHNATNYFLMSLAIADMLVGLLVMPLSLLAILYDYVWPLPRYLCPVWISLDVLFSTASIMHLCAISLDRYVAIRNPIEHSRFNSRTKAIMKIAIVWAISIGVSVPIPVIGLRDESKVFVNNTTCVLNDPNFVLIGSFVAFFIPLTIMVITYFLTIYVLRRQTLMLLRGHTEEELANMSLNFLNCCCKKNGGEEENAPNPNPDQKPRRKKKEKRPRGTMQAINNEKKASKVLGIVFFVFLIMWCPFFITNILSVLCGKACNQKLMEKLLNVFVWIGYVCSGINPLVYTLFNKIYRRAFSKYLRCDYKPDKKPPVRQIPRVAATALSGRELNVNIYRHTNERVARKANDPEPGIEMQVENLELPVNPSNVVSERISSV
Experimental: as §1
a) Affinity to the 5-HT2C receptor in accordance with the [3H]-5-HT binding assay according to the method of S.J. Peroutka et al., Brain Research 584, 191-196 (1992).
as §2

[3] = biological target: T2, 5-HT2C receptor; assay: Penile erection (rats); type: in vivo; design: following the administration of the test substance to the animals; from tissue; host or cells: whole living rat (in vivo); conditions: po, 0.75 h, p.o., erections within 45 minutes following administration, read-out: ID50 (mg/kg) (p.o.), penile erection
Experimental: It has been shown that penile erection is dependent on the stimulation of 5HT2C receptors (see Berendsen & Broekkamp, Eur. J. Pharm., 135, 179-184 (1987).
The number of penile erections was determined within 45 minutes following the administration of the test substance to the animals. The ED50 is the dosage which causes 50% of these erections.

T1 sequence (P28223 whole entry): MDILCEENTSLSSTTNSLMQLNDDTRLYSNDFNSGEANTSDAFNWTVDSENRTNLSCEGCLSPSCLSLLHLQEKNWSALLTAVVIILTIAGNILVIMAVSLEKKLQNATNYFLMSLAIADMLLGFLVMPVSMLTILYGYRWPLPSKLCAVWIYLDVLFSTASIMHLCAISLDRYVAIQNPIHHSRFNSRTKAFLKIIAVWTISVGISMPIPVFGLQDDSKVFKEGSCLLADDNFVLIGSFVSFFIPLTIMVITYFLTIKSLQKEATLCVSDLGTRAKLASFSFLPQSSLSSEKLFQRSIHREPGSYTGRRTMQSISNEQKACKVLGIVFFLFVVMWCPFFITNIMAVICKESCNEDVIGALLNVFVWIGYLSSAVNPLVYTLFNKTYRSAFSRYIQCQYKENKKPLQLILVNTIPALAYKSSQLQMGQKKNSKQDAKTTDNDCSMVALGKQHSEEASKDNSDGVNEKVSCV

| SMILES | Ki [1] [nM] | Ki [2] [nM] | ED50 [3] [mg/kg] | Pki (Pki=-log10 Ki), 5-HT2A, Method b [1] | Pki (Pki=-log10 Ki), 5-HT2C, Method a [2] |
| --- | --- | --- | --- | --- | --- |
| CCCc1ccc(F)c2cc(C(=N)N)oc12 [Example 11] | 501 | 7.94 |  |  |  |
| CCOc1cccc2cc(C(=N)N)oc12 [Example 4, 7-Ethoxybenzofuran-2-carboxamidine] | > 10000 | 50.1 |  |  |  |
| CSCc1cccc2cc(C(=N)N)oc12 [CH2 --S-Me H H H H] | 1000 | 251 |  |  |  |
| COc1cccc2oc(C(=N)N)cc12 [H H H OMe H] | 2000 | 158 |  |  |  |
| NC(=NO)c1cc2ccc(F)cc2o1 [Example 16, 6-Fluorobenzofuran-2-carboxamidoxime] | > 10000 | 4370 | 1.6 |  |  |
| COc1cc(-c2ccccc2)cc2cc(C(=N)N)oc12 [OMe H Ph H H] | 158 | 1580 |  |  |  |
| N=C(N)c1cc2cccc(Cl)c2o1 [Cl H H H H] | 3980 | 158 |  |  |  |
| N=C(N)c1cc2ccc(Cl)cc2o1 [H Cl H H H] | 5010 | 1260 |  |  |  |
| CSc1cccc2cc(C(=N)N)oc12 [SMe H H H H] | 1000 | 79.4 |  |  |  |
| COc1cc(Br)cc2cc(C(=N)N)oc12 [OMe H Br H H] | 2510 | 126 |  |  |  |
| CCCc1c(F)ccc2cc(C(=N)N)oc12 [Example 8, 6-Fluoro-7-propylbenzofuran-2-carboxamidine] | 158 | 20 |  |  |  |
| NC(=NO)c1cc2cc(F)ccc2o1 [Example 15, 5-Fluorobenzofuran-2-carboxamidoxime] | > 10000 | 4270 |  |  |  |
| N=C(N)c1cc2ccc(F)cc2o1 [Example 6, 6-Fluorobenzofuran-2-carboxamidine] | 2510 | 158 | 3 |  |  |
| N=C(N)c1cc2cc(Cl)ccc2o1 [H H Cl H H] | 1580 | 1580 |  |  |  |
| CCOc1cccc2oc(C(=N)N)cc12 [Example 2, 4-Ethoxybenzofuran-2-carboxamidine] | > 10000 | 158 |  |  |  |
| Cc1ccc2cc(C(=N)N)oc2c1 [H Me H H H] | > 10000 | 1000 |  |  |  |
| COc1ccc2cc(C(=N)N)oc2c1 [H OMe H H H] | 6310 | 631 |  |  |  |
| N=C(N)c1cc2cc(F)c(F)cc2o1 [Example 1, 5,6-Difluorobenzofuran-2-carboxamidine] | 2000 | 158 | 6 |  |  |
| COCc1cccc2cc(C(=N)N)oc12 [CH2 --O-Me H H H H] | 3160 | 158 |  |  |  |
| COc1cccc2cc(C(=N)N)oc12 [Example 3, 7-Methoxybenzofuran-2-carboxamidine] | > 10000 | 158 |  |  |  |
| N=C(N)c1cc2c(F)cc(F)cc2o1 [Example 10, 4.6-Difluoro-benzofuran-2-carboxamidine] | 631 | 7.94 |  |  |  |
| NC(=NO)c1cc2c(F)cccc2o1 [Example 18, 4-Fluorobenzofuran-2-carboxamidoxime] | 2510 | 79.4 |  |  |  |
| CC(C)c1cccc2cc(C(=N)N)oc12 [i-Prop H H H H] | 794 | 63.1 |  |  |  |
| N=C(N)c1cc2c(F)cccc2o1 [Example 9, 4-Fluoro-benzofuran-2-carboxamidine] | 2000 | 39.8 | 2.9 |  |  |
| N=C(N)c1cc2cccc(-c3ccccc3)c2o1 [Ph H H H H] | 158 | 251 |  |  |  |
| Cc1cccc2cc(C(=N)N)oc12 [Me H H H H] | 2510 | 398 |  |  |  |

| SMILES | Ki [1] [nM] | Ki [2] [nM] | ED50 [3] [mg/kg] | Pki (Pki=-log10 Ki), 5-HT2A, Method b [1] | Pki (Pki=-log10 Ki), 5-HT2C, Method a [2] |
| --- | --- | --- | --- | --- | --- |
| CCCOc1cccc2cc(C(=N)N)oc12 [OPr H H H H] | > 10000 | 158 |  |  |  |
| CC(C)Oc1cccc2cc(C(=N)N)oc12 [Oi-Pr H H H H] | 1000 | 200 |  |  |  |
| N=C(N)c1cc2cccc(O)c2o1 [CH H H H H] |  |  |  | < 5 | 6.2 |
| N=C(N)c1cc2cccc(F)c2o1 [F H H H H] | 5010 | 794 |  |  |  |
| N=C(N)c1cc2cccc(OCc3ccccc3)c2o1 [OBn H H H H] | 126 | 63.1 |  |  |  |
| N=C(N)c1cc2cc(Br)cc(Br)c2o1 [Br H Br H H] | 316 | 2000 |  |  |  |
| NC(=NO)c1cc2cc(F)c(F)cc2o1 [Example 13, 5,6-Difluorobenzofuran-2-carboxamidoxime] | > 10000 | > 10000 |  |  |  |
| N=C(N)c1cc2cccc(OC3CCCCC3)c2o1 [O-Cyclo-hex H H H H] | 158 | 631 |  |  |  |
| N=C(N)c1cc2cc(Cl)cc(Br)c2o1 [Br H Cl H H] | 316 | 5010 |  |  |  |
| N=C(N)c1cc2c(F)ccc(Br)c2o1 [Example 12, 7-Bromo-4-fluorobenzofuran-2-carboxamidine] | > 10000 | > 10000 |  |  |  |
| CCCc1cccc2cc(C(=N)N)oc12 [n-Pr H H H H] | 1000 | 79.4 |  |  |  |
| CC(C)OCc1cccc2cc(C(=N)N)oc12 [CH2 --O-iPr H H H H] | 2000 | 398 | 5.1 |  |  |
| N=C(N)c1cc2cccc(OC3CCCC3)c2o1 [O-Cyclo-pent H H H H] | 251 | 501 |  |  |  |
| COc1ccc2oc(C(=N)N)cc2c1 [H H OMe H H] | > 10000 | 2510 |  |  |  |
| CCOCc1cccc2cc(C(N)=NO)oc12 [Example 17, 7-Ethoxymethylbenzofuran-2-carboxamidoxime] | > 10000 | > 10000 |  |  |  |
| N=C(N)c1cc2cc(Cl)cc(Cl)c2o1 [Cl H Cl H H] | 631 | 2510 |  |  |  |
| N=C(N)c1cc2cc(F)ccc2o1 [Example 5, 5-Fluorobenzofuran-2-carboxamidine] | 2000 | 158 |  |  |  |
| COc1ccc(C)c2cc(C(=N)N)oc12 [OMe H H Me H] | 2510 | 100 |  |  |  |
| N=C(N)c1cc2ccc3c(c2o1)OCC3 [--O--CH2 --CH2 -- H H H] | 3160 | 398 |  |  |  |
| N=C(N)c1cc2ccccc2o1 [H H H H H, benzofuran-2-carboxamidine] | 5010 | 79.4 | 5 |  |  |
| CCOCc1cccc2cc(C(=N)N)oc12 [Example 7, 7-Ethoxymethylbenzofuran-2-carboxamidine] | 2000 | 100 |  |  |  |
| CC(C)COc1cccc2cc(C(=N)N)oc12 [Oi-Bu H H H H] | 1000 | 2000 |  |  |  |
| CCOc1cccc2cc(C(N)=NO)oc12 [Example 14, 7-Ethoxybenzofuran-2-carboxamidoxime] | > 10000 | 5500 |  |  |  |
| N=C(N)c1cc2cccc(Br)c2o1 [Br H H H H] | 1580 | 126 |  |  |  |
| CC(C)CCOc1cccc2cc(C(=N)N)oc12 [Oi-Pent H H H H] | 158 | 501 |  |  |  |
| NC(=NO)c1cc2ccccc2o1 [H H H H CH, benzofuran-2-carboxamidoxime] | > 10000 | > 10000 | 2 |  |  |
